Results published in publication PMC12475274, “Harnessing indole scaffolds to identify small-molecule IRE1α inhibitors modulating XBP1 mRNA splicing” (Nature Communications, 2025).

Test system: XBP1 mRNA splicing in HT-29 cells
Test: RT-qPCR of ER stress-induced XBP1 mRNA splicing, HT-29
Format: cell-based, human
Settings: HT-29 cells
Method: A549 cells, HCT 116 cells, and HT-29 cells were collected and seeded in 6-well plates at a density of 5 × 10^5 cells per well and cultured overnight to attach, then treated with compound or DMSO for 2 h, then 0.5 μg/mL final concentration of tunicamycin (Tm, MP Biomedi, 0215002805) were added to induce the ER stress for 2 h. After treatment, total RNA was purified using an RNeasy mini kit (Qiagen, 74106). 500 ng of total RNA was used for reverse transcription using the High-Capacity cDNA Reverse Transcription Kits (Thermo Fisher, 4368814). cDNA was diluted 1: 5 using RNase-free water, and 1 μL CDNA was used for each qPCR reaction. The qPCR was performed using PowerUp™ SYBR™ Green Master Mix (Thermo Fisher, A25742) with 10 µL reaction volume using Bio-Rad CFX96 Real-Time PCR Detection System following the standard cycling mode (primer Tm ≥ 60 °C) on the manufacturer’s protocol. Data was analyzed using the 2^- ΔΔCt method. The primers used are listed in Supplementary Table S3. The inhibition % was calculated by using the equation: inhibition% = 100× (normalized Tm control - normalized of the sample)/(normalized Tm control - normalized DMSO control). Tm control: Cells treated with tunicamycin; DMSO control: Cells treated with DMSO only.

IC50 (Homo sapiens): 160 nM
Structure (SMILES): CCOC(=O)CCc1c(C)n(C(=O)c2ccccc2)c2ccc(Br)cc12 [IAPD1]
inhibition of ER stress-induced XBP1 mRNA splicing: inhibited
